One assay concerns Pyrenophora teres. The assay is described as follows: Pyrenophora teres (net blotch of barley), barley leaf segments, preventive. As to conditions: foliar, 96 h, assessed 4 dpi, vs untreated control. In kind it is in vivo. As for the experimental part:
Barley leaf segments are placed on agar in multiwell plates (24-well format) and sprayed with test solutions. After drying, the leaf disks are inoculated with a spore suspension of the fungus. After appropriate incubation, the activity of a compound is assessed 4 dpi (days after inoculation) as preventive fungicidal activity.

Another assay relates to Sclerotinia sclerotiorum. The assay is described as follows: Sclerotinia sclerotiorum (cottony rot, white mold), liquid culture growth inhibition. It is filed as cell-based. Conditions: PDB nutrient broth, 24° C., 72 hrs, 620 nm, vs untreated control. On the procedure: Mycelial fragments of the fungus prepared from a fresh liquid culture were directly mixed into nutrient broth (PDB potato dextrose broth). A DMSO solution of the test compounds was placed into a microtiter plate (96-well format) and the nutrient broth containing the fungal spores was added to it. The test plates were incubated at 24° C. and the inhibition of growth was determined photometrically after 72 hrs at 620 nm.

In assay [1] the test system is Phaeosphaeria nodorum syn. Septoria nodorum. The experiment in a line: Phaeosphaeria nodorum syn. Septoria nodorum (glume blotch of wheat), wheat leaf segments, preventive. It is filed as in vivo. As to conditions: Parastagonospora nodorum, foliar, 96 h, assessed 4 dpi, vs untreated control. On the procedure:
Wheat leaf segments are placed on agar in multiwell plates (24-well format) and sprayed with test solutions. After drying, the leaf disks are inoculated with a spore suspension of the fungus. After appropriate incubation the activity of a compound is assessed 4 dpi (days after inoculation) as preventive fungicidal activity.
The following compounds from Table T1 gave at least 80% control of Phaeosphaeria nodorum at 200 ppm when compared to untreated control under the same conditions, which sowed extensive disease development: • 1.1, 1.3, 1.7, 1.14, 1.39, 1.41, 1.86, 1.87, 1.92, 1.94, 1.95.

Assay [2] concerns Monographella nivalis syn. Microdochium nivale, Fusarium nivale. The experiment in a line: Monographella nivalis syn. Microdochium nivale (snow mould, foot rot), liquid culture growth inhibition. In kind it is cell-based. As to conditions: PDB nutrient broth, 24° C., 72 hrs, 620 nm, vs untreated control. On the procedure: (§1) Conidia of the fungus from cryogenic storage were directly mixed into nutrient broth (PDB potato dextrose broth). A DMSO solution of the test compounds was placed into a microtiter plate (96-well format) and the nutrient broth containing the fungal spores was added to it. The test plates were incubated at 24° C. and the inhibition of growth was determined photometrically after 72 hrs at 620 nm.

Assay [3] concerns Botryotinia fuckeliana syn. Botrytis cinerea. The experiment in a line: Botryotinia fuckeliana syn. Botrytis cinerea (gray mould), liquid culture growth inhibition. In kind it is cell-based. As to conditions: PDB nutrient broth, 24° C., 72 hrs, photometric, vs untreated control. On the procedure:
Conidia of the fungus from cryogenic storage were directly mixed into nutrient broth (PDB potato dextrose broth). A DMSO solution of the test compounds was placed into a microtiter plate (96-well format) and the nutrient broth containing the fungal spores was added to it. The test plates were incubated at 24° C. and the inhibition of growth was determined photometrically after 72 hrs.

For assay [4] the test system is unchanged. The experiment in a line: Botryotinia fuckeliana syn. Botrytis cinerea (grey mold on tomato), tomato plants. It is filed as in vivo. Conditions: tomato plants cv. Roter Gnom, inoculated two days after application, leaf area covered by disease 5-6 days after application. The method, boiled down:
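Tomato plants (cv. Roter Gnom, 4 weeks old) sprayed with formulated compound diluted in water, then spray-inoculated with spore suspension 2 days later. Incubated at 20° C and 95% rh in greenhouse; % leaf area diseased assessed 5-6 days after application, when untreated checks show adequate disease.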

Assay [5] concerns Glomerella lagenarium syn Colletotrichum lagenarium. The experiment in a line: Glomerella lagenarium syn. Colletotrichum lagenarium (anthracnose), liquid culture growth inhibition. In kind it is cell-based. As to conditions: Colletotrichum orbiculare, PDB nutrient broth, 24° C., 72 hrs, 620 nm, vs untreated control. As for the experimental part:
as §1

For the next assay, the system named is Alternaria solani. The experiment in a line: Alternaria solani (early blight of tomato), tomato leaf disks, preventive. As to conditions: foliar, 96 h, assessed 4 dpi, vs untreated control. In kind it is in vivo. On the procedure: Tomato leaf disks are placed on water agar in multiwell plates (24-well format) and sprayed with test solutions. After drying, the leaf disks are inoculated with a spore suspension of the fungus. After appropriate incubation the activity of a compound is assessed 4 dpi (days post inoculation) as preventive fungicidal activity.

In general, pest or weed control refers to how far the test organism was held down. Read a low pest or weed control as weak suppression. One may read the inhibition of growth as how much of the control response was suppressed.

For `C#Cc1cncc(Oc2cccc(C3CC3)c2)c1C(=O)NCC(F)c1ccc(Cl)cc1Cl` (centres unmarked) [Compound 1.87, 3-(3-cyclopropyl-phenoxy)-N-[2-(2,4-dichlorophenyl)-2-fluoro-ethyl]-5-ethynyl-pyridine-4-carboxamide], the pest or weed control at 200 ppm was at least 80% in the assay with Pyrenophora teres, at least 80% in assay [1], at least 50% in assay [4] and at least 80% in the assay on Alternaria solani. For the same compound, the inhibition of growth at 20 ppm (in the assay with Sclerotinia sclerotiorum; in assay [2]; in assay [3]; in assay [5]) was at least 80% each time.

The values are drawn from patent publication US20240182420A1, “MICROBIOCIDAL ISONICOTINIC AMIDE DERIVATIVES” (SYNGENTA CROP PROTECTION AG, priority 2021, published 2024).
